# Data: US20250049748A1, “ANALOGS OF 4-BROMO-2,5-DIMETHOXYPHENETHYLAMINE” (Terran Biosciences Inc., priority 2021, published 2025)
# Experiment: Pharmacokinetic study in rats: plasma 2C-B after IV/PO 2C-B or PO 2C-B prodrugs
# [1] = oral dosing of 2C-B prodrug, rat, time 0.500 h, individual animal
# [2] = oral dosing of 2C-B prodrug, rat, time 0.500 h, mean
# [3] = oral dosing of 2C-B prodrug, rat, time 1.00 h, individual animal
# [4] = oral dosing of 2C-B prodrug, rat, time 1.00 h, mean
# [5] = oral dosing of 2C-B prodrug, rat, time 2.00 h, individual animal
# [6] = oral dosing of 2C-B prodrug, rat, time 2.00 h, mean
# [7] = oral dosing of 2C-B prodrug, rat, time 4.00 h, individual animal
# [8] = oral dosing of 2C-B prodrug, rat, time 4.00 h, mean
# [9] = oral dosing of 2C-B prodrug, rat, time 7.00 h, individual animal
# [10] = oral dosing of 2C-B prodrug, rat, time 7.00 h, mean
# [11] = oral dosing of 2C-B prodrug, rat, time 24.0 h, individual animal
# [12] = oral dosing of 2C-B prodrug, rat, time 24.0 h, mean
# [13] = prodrug oral 10 mg/kg, male SD rats, time 0.500 h, individual animals
# [14] = prodrug oral 10 mg/kg, male SD rats, time 0.500 h, mean
# [15] = prodrug oral 10 mg/kg, male SD rats, time 1.00 h, individual animals
# [16] = prodrug oral 10 mg/kg, male SD rats, time 1.00 h, mean
# [17] = prodrug oral 10 mg/kg, male SD rats, time 2.00 h, individual animals
# [18] = prodrug oral 10 mg/kg, male SD rats, time 2.00 h, mean
# [19] = prodrug oral 10 mg/kg, male SD rats, time 4.00 h, individual animals
# [20] = prodrug oral 10 mg/kg, male SD rats, time 4.00 h, mean
# [21] = prodrug oral 10 mg/kg, male SD rats, time 7.00 h, individual animals
# [22] = prodrug oral 10 mg/kg, male SD rats, time 7.00 h, mean
# [23] = prodrug oral 10 mg/kg, male SD rats, time 24.0 h, individual animals
# [24] = prodrug oral 10 mg/kg, male SD rats, time 24.0 h, mean
compound,measurement,setting,value
"COc1cc(CCN2C(=O)c3c(C)ccc(C)c3C2=O)c(OC)cc1Br [Example 34, 2-(4-bromo-2,5-dimethoxyphenethyl)-4,7-dimethylisoindoline-1,3-dione]",Plasma Concentrations of metabolite 2C-B Following Oral Dosing,[1],BLQ (BLQ: Below Lower Limit of Quanification (0.5 ng/mL))
same,Plasma Concentrations of metabolite 2C-B Following Oral Dosing,[2],BLQ (BLQ: Below Lower Limit of Quanification (0.5 ng/mL))
same,Plasma Concentrations of metabolite 2C-B Following Oral Dosing,[3],BLQ (BLQ: Below Lower Limit of Quanification (0.5 ng/mL))
same,Plasma Concentrations of metabolite 2C-B Following Oral Dosing,[4],BLQ (BLQ: Below Lower Limit of Quanification (0.5 ng/mL))
same,Plasma Concentrations of metabolite 2C-B Following Oral Dosing,[5],BLQ (BLQ: Below Lower Limit of Quanification (0.5 ng/mL))
same,Plasma Concentrations of metabolite 2C-B Following Oral Dosing,[6],BLQ (BLQ: Below Lower Limit of Quanification (0.5 ng/mL))
same,Plasma Concentrations of metabolite 2C-B Following Oral Dosing,[7],BLQ (BLQ: Below Lower Limit of Quanification (0.5 ng/mL))
same,Plasma Concentrations of metabolite 2C-B Following Oral Dosing,[8],BLQ (BLQ: Below Lower Limit of Quanification (0.5 ng/mL))
same,Plasma Concentrations of metabolite 2C-B Following Oral Dosing,[9],BLQ (BLQ: Below Lower Limit of Quanification (0.5 ng/mL))
same,Plasma Concentrations of metabolite 2C-B Following Oral Dosing,[10],BLQ (BLQ: Below Lower Limit of Quanification (0.5 ng/mL))
same,Plasma Concentrations of metabolite 2C-B Following Oral Dosing,[11],BLQ (BLQ: Below Lower Limit of Quanification (0.5 ng/mL))
same,Plasma Concentrations of metabolite 2C-B Following Oral Dosing,[12],BLQ (BLQ: Below Lower Limit of Quanification (0.5 ng/mL))
"COc1cc(CCN(C(=O)OC(C)(C)C)C(=O)OC(C)(C)C)c(OC)cc1Br [Example 12, tert-butyl (4-bromo-2,5-dimethoxyphenethyl)(tert-butoxycarbonyl) carbamate]",Plasma Concentrations of metabolite 2C-B Following Oral Dosing,[13],BLQ (BLQ: Below Lower Limit of Quanification (0.5 ng/mL))
same,Plasma Concentrations of metabolite 2C-B Following Oral Dosing,[14],BLQ (BLQ: Below Lower Limit of Quanification (0.5 ng/mL))
same,Plasma Concentrations of metabolite 2C-B Following Oral Dosing,[15],BLQ (BLQ: Below Lower Limit of Quanification (0.5 ng/mL))
same,Plasma Concentrations of metabolite 2C-B Following Oral Dosing,[16],BLQ (BLQ: Below Lower Limit of Quanification (0.5 ng/mL))
same,Plasma Concentrations of metabolite 2C-B Following Oral Dosing,[17],BLQ (BLQ: Below Lower Limit of Quanification (0.5 ng/mL))
same,Plasma Concentrations of metabolite 2C-B Following Oral Dosing,[18],BLQ (BLQ: Below Lower Limit of Quanification (0.5 ng/mL))
same,Plasma Concentrations of metabolite 2C-B Following Oral Dosing,[19],BLQ (BLQ: Below Lower Limit of Quanification (0.5 ng/mL))
same,Plasma Concentrations of metabolite 2C-B Following Oral Dosing,[20],BLQ (BLQ: Below Lower Limit of Quanification (0.5 ng/mL))
same,Plasma Concentrations of metabolite 2C-B Following Oral Dosing,[21],BLQ (BLQ: Below Lower Limit of Quanification (0.5 ng/mL))
same,Plasma Concentrations of metabolite 2C-B Following Oral Dosing,[22],BLQ (BLQ: Below Lower Limit of Quanification (0.5 ng/mL))
same,Plasma Concentrations of metabolite 2C-B Following Oral Dosing,[23],BLQ (BLQ: Below Lower Limit of Quanification (0.5 ng/mL))
same,Plasma Concentrations of metabolite 2C-B Following Oral Dosing,[24],BLQ (BLQ: Below Lower Limit of Quanification (0.5 ng/mL))
"COc1cc(CCNC(=O)CN(C)C(=O)[C@H](Cc2ccccc2)NC(=O)OC(C)(C)C)c(OC)cc1Br [Example 10, tert-butyl (S)-(1-((2-((4-bromo-2,5-dimethoxyphenethyl)amino)-2-oxoethyl)(methyl)amino)-1-oxo-3-phenylpropan-2-yl)carbamate]",Plasma Concentrations of metabolite 2C-B Following Oral Dosing,[1],BLQ (BLQ: Below Lower Limit of Quanification (0.5 ng/mL))
same,Plasma Concentrations of metabolite 2C-B Following Oral Dosing,[2],BLQ (BLQ: Below Lower Limit of Quanification (0.5 ng/mL))
same,Plasma Concentrations of metabolite 2C-B Following Oral Dosing,[3],BLQ (BLQ: Below Lower Limit of Quanification (0.5 ng/mL))
same,Plasma Concentrations of metabolite 2C-B Following Oral Dosing,[4],BLQ (BLQ: Below Lower Limit of Quanification (0.5 ng/mL))
same,Plasma Concentrations of metabolite 2C-B Following Oral Dosing,[5],BLQ (BLQ: Below Lower Limit of Quanification (0.5 ng/mL))
same,Plasma Concentrations of metabolite 2C-B Following Oral Dosing,[6],BLQ (BLQ: Below Lower Limit of Quanification (0.5 ng/mL))
same,Plasma Concentrations of metabolite 2C-B Following Oral Dosing,[7],BLQ (BLQ: Below Lower Limit of Quanification (0.5 ng/mL))
same,Plasma Concentrations of metabolite 2C-B Following Oral Dosing,[8],BLQ (BLQ: Below Lower Limit of Quanification (0.5 ng/mL))
same,Plasma Concentrations of metabolite 2C-B Following Oral Dosing,[9],BLQ (BLQ: Below Lower Limit of Quanification (0.5 ng/mL))
same,Plasma Concentrations of metabolite 2C-B Following Oral Dosing,[10],BLQ (BLQ: Below Lower Limit of Quanification (0.5 ng/mL))
same,Plasma Concentrations of metabolite 2C-B Following Oral Dosing,[11],BLQ (BLQ: Below Lower Limit of Quanification (0.5 ng/mL))
same,Plasma Concentrations of metabolite 2C-B Following Oral Dosing,[12],BLQ (BLQ: Below Lower Limit of Quanification (0.5 ng/mL))
"COc1cc(CCN2C(=O)C(C)=C(C)C2=O)c(OC)cc1Br [Example 21-B, 1-(4-bromo-2,5-dimethoxyphenethyl)-3,4-dim ethyl-1H-pyrrole-2,5-dione]",Plasma Concentrations of metabolite 2C-B Following Oral Dosing,[13],BLQ (BLQ: Below Lower Limit of Quanification (0.5 ng/mL))
same,Plasma Concentrations of metabolite 2C-B Following Oral Dosing,[14],BLQ (BLQ: Below Lower Limit of Quanification (0.5 ng/mL))
same,Plasma Concentrations of metabolite 2C-B Following Oral Dosing,[15],BLQ (BLQ: Below Lower Limit of Quanification (0.5 ng/mL))
same,Plasma Concentrations of metabolite 2C-B Following Oral Dosing,[16],BLQ (BLQ: Below Lower Limit of Quanification (0.5 ng/mL))
same,Plasma Concentrations of metabolite 2C-B Following Oral Dosing,[17],BLQ (BLQ: Below Lower Limit of Quanification (0.5 ng/mL))
same,Plasma Concentrations of metabolite 2C-B Following Oral Dosing,[18],BLQ (BLQ: Below Lower Limit of Quanification (0.5 ng/mL))
same,Plasma Concentrations of metabolite 2C-B Following Oral Dosing,[19],BLQ (BLQ: Below Lower Limit of Quanification (0.5 ng/mL))
same,Plasma Concentrations of metabolite 2C-B Following Oral Dosing,[20],BLQ (BLQ: Below Lower Limit of Quanification (0.5 ng/mL))
same,Plasma Concentrations of metabolite 2C-B Following Oral Dosing,[21],BLQ (BLQ: Below Lower Limit of Quanification (0.5 ng/mL))
same,Plasma Concentrations of metabolite 2C-B Following Oral Dosing,[22],BLQ (BLQ: Below Lower Limit of Quanification (0.5 ng/mL))
same,Plasma Concentrations of metabolite 2C-B Following Oral Dosing,[23],BLQ (BLQ: Below Lower Limit of Quanification (0.5 ng/mL))
same,Plasma Concentrations of metabolite 2C-B Following Oral Dosing,[24],BLQ (BLQ: Below Lower Limit of Quanification (0.5 ng/mL))
